In brackets after ≈: the same amount, converted by molar mass. Some results are limits rather than exact numbers.

Common to all, as to format: functional, cell-based
The test system of assay [1] is HeLa. The experiment in a line: Antitumor activity against human cervical carcinoma HeLa cell line.
The subject of assay [2] is MCF7. Nature of the assay: Antitumor activity against human breast adenocarcinoma MCF7 cell line.
In assay [3] the test system is A549. Nature of the assay: Antitumor activity against human lung adenocarcinoma A549 cell line.
Assay [4] has as its system CNE. The experiment in a line: Antitumor activity against human nasopharyngeal carcinoma CNE cell line.
The mark [5] stands for this setting: Homo sapiens, HeLa, read-out: IC50.
[6] abbreviates: Homo sapiens, MCF7, read-out: IC50.
Where [7] appears, read: Homo sapiens, A549, read-out: IC50.
The mark [8] stands for this setting: Homo sapiens, CNE, read-out: IC50.

Regarding `COc1cc2c(cc1OC)[C@@]1(C)CCCC(C)(C)[C@H]1CC2`, the IC50 in assay [1] (setting [5]) was 13.2 µg/mL (≈ 45.8 µM); in assay [2] (setting [6]), 10.9 µg/mL (≈ 37.8 µM); in assay [3] (setting [7]), 9.6 µg/mL (≈ 33.3 µM); in assay [4] (setting [8]) it was 4.5 µg/mL (≈ 15.6 µM).
As for `CC1(C)CCC[C@]2(C)c3cc(OCc4ccccc4F)c(O)cc3CC[C@@H]12`, the IC50 in assay [1] (setting [5]), in assay [2] (setting [6]), in assay [3] (setting [7]) and in assay [4] (setting [8]) was more than 50 µg/mL each time.
`COc1cc2c(cc1OC)[C@@]1(C)CCCC(C)(C)[C@@H]1CC2=O`: the IC50 was 25.7 µg/mL (≈ 85 µM) in assay [1] (setting [5]), more than 50 µg/mL in assay [2] (setting [6]), more than 50 µg/mL in assay [3] (setting [7]) and more than 50 µg/mL in assay [4] (setting [8]).
For the molecule `CC1(C)CCC[C@]2(C)c3cc(O)c(OCc4ccccc4F)cc3CC[C@@H]12`, the IC50 in assay [1] (setting [5]), in assay [2] (setting [6]), in assay [3] (setting [7]) and in assay [4] (setting [8]) was more than 50 µg/mL each time.
`COc1cc2c(cc1OC)[C@@]1(C)CCCC(C)(C)[C@H]1CC2=O`: the IC50 came to 12.7 µg/mL (≈ 42 µM) in assay [1] (setting [5]), 7.8 µg/mL (≈ 25.8 µM) in assay [2] (setting [6]), 26.3 µg/mL (≈ 87 µM) in assay [3] (setting [7]) and 3.1 µg/mL (≈ 10.3 µM) in assay [4] (setting [8]).
As to `CC1(C)CCC[C@]2(C)c3cc(O)c(O)cc3CC[C@@H]12` (stereo in doubt; 1), the IC50 in assay [1] (setting [5]) came to 24.3 µg/mL (≈ 93.3 µM); in assay [2] (setting [6]), 41.2 µg/mL (≈ 158 µM); in assay [3] (setting [7]), 19.6 µg/mL (≈ 75.3 µM); in assay [4] (cne), 25.1 µg/mL (≈ 96.4 µM).
As for `CC1(C)CCC[C@]2(C)c3cc(O)c(OCc4ccc(Cl)cc4)cc3CC[C@@H]12`, the IC50 in assay [1] (setting [5]), in assay [2] (setting [6]), in assay [3] (setting [7]) and in assay [4] (setting [8]) was more than 50 µg/mL in each case.
`CC1(C)CCC[C@]2(C)c3cc(O)c(OCc4cccc([N+](=O)[O-])c4)cc3CC[C@H]12`: the IC50 was 18.6 µg/mL (≈ 47 µM) in assay [1] (setting [5]), more than 50 µg/mL in assay [2] (setting [6]), more than 50 µg/mL in assay [3] (setting [7]) and more than 50 µg/mL in assay [4] (setting [8]).
Consider `CC1(C)CCC[C@]2(C)c3cc(OCc4cccc([N+](=O)[O-])c4)c(O)cc3CC[C@@H]12`, for which the IC50 in assay [1] (setting [5]), in assay [2] (setting [6]), in assay [3] (setting [7]) and in assay [4] (setting [8]) was more than 50 µg/mL each time.
With `CC1(C)CCC[C@]2(C)c3cc(OCc4ccccc4F)c(O)cc3CC[C@H]12`, the IC50 in assay [1] (setting [5]) worked out at 15.3 µg/mL (≈ 41.5 µM); in assay [2] (setting [6]), 12.4 µg/mL (≈ 33.7 µM); in assay [3] (setting [7]) it was 13.7 µg/mL (≈ 37.2 µM); in assay [4] (setting [8]) it was 7.2 µg/mL (≈ 19.5 µM).
For `CC1(C)CCC[C@]2(C)c3cc(O)c(OCc4ccc(Cl)cc4)cc3CC[C@H]12` the same measures were more than 50 µg/mL, more than 50 µg/mL, more than 50 µg/mL and more than 50 µg/mL.
For `CC1(C)CCC[C@]2(C)c3cc(OCc4ccc(Cl)cc4)c(O)cc3CC[C@H]12`, in that order: 42.2 µg/mL (≈ 110 µM), more than 50 µg/mL, 46.9 µg/mL (≈ 122 µM) and 27.2 µg/mL (≈ 70.7 µM).
Turning to `COc1cc2c(cc1OC)[C@@]1(C)CCCC(C)(C)[C@@H]1CC2`, the IC50 came out at 41.5 µg/mL (≈ 144 µM) in assay [1] (setting [5]), 39.5 µg/mL (≈ 137 µM) in assay [2] (setting [6]), 41.7 µg/mL (≈ 145 µM) in assay [3] (setting [7]) and 25.1 µg/mL (≈ 87 µM) in assay [4] (setting [8]).
For the molecule `CC1(C)CCC[C@]2(C)c3cc(O)c(O)cc3CC[C@@H]12` (stereo in doubt), the IC50 was 42 µg/mL (≈ 161 µM) in assay [1] (hela), 36.5 µg/mL (≈ 140 µM) in assay [2] (mcf7), 36.1 µg/mL (≈ 139 µM) in assay [3] (a549) and 12.1 µg/mL (≈ 46.5 µM) in assay [4] (cne).
In the case of `CC1(C)CCC[C@]2(C)c3cc(O)c(OCc4ccccc4F)cc3CC[C@H]12`, the IC50 in assay [1] (setting [5]) was found to be 13.4 µg/mL (≈ 36.4 µM); in assay [2] (setting [6]), 42.9 µg/mL (≈ 116 µM); in assay [3] (setting [7]), 35 µg/mL (≈ 95 µM); in assay [4] (setting [8]) it was 17.8 µg/mL (≈ 48.3 µM).
For `CC1(C)CCC[C@]2(C)c3cc(O)c(O)cc3C(=O)C(=O)[C@H]12` the same measures were 18 µg/mL (≈ 62.4 µM), 24.8 µg/mL (≈ 86 µM), 25.8 µg/mL (≈ 89.5 µM) and 9.1 µg/mL (≈ 31.6 µM).
Take `CC1(C)CCC[C@]2(C)c3cc(O)c(O)cc3C(=O)C[C@H]12`: the IC50 in assay [1] (setting [5]) was 17.6 µg/mL (≈ 64.1 µM); in assay [2] (setting [6]) it was 36.2 µg/mL (≈ 132 µM); in assay [3] (setting [7]), more than 50 µg/mL; in assay [4] (setting [8]), 13.5 µg/mL (≈ 49.2 µM).
For `CC1(C)CCC[C@]2(C)c3cc(OCc4ccc(Cl)cc4)c(O)cc3CC[C@@H]12`, in that order: more than 50 µg/mL, more than 50 µg/mL, more than 50 µg/mL and more than 50 µg/mL.
For `CC1(C)CCC[C@]2(C)c3cc(OCc4cccc([N+](=O)[O-])c4)c(O)cc3CC[C@H]12`, in that order: more than 50 µg/mL, more than 50 µg/mL, 36.4 µg/mL (≈ 92 µM) and 32.9 µg/mL (≈ 83.2 µM).
On to CISPLATIN, for which the IC50 in assay [1] (hela) was 5.89 µg/mL; in assay [2] (mcf7), 6.53 µg/mL; in assay [3] (a549), 3.58 µg/mL; in assay [4] (cne) it was 2.34 µg/mL.
For the molecule `CC1(C)CCC[C@]2(C)c3cc(O)c(O)cc3CC[C@H]12`, the IC50 in assay [1] (setting [5]) is 10.9 µg/mL (≈ 41.9 µM); in assay [2] (setting [6]), 9.6 µg/mL (≈ 36.9 µM); in assay [3] (setting [7]), 5.7 µg/mL (≈ 21.9 µM); in assay [4] (setting [8]), 3.6 µg/mL (≈ 13.8 µM).
For `CC1(C)CCC[C@]2(C)c3cc(O)c(O)cc3C(=O)C[C@@H]12`, in that order: 27.7 µg/mL (≈ 101 µM), more than 50 µg/mL, more than 50 µg/mL and 22.1 µg/mL (≈ 80.6 µM).
For `COc1cc2c(cc1OC)[C@@]1(C)CCCC(C)(C)[C@H]1C(=O)C2=O`, in that order: 16.1 µg/mL (≈ 50.9 µM), 16.5 µg/mL (≈ 52.1 µM), 33.8 µg/mL (≈ 107 µM) and 5.6 µg/mL (≈ 17.7 µM).
For `CC1(C)CCC[C@]2(C)c3cc(O)c(OCc4cccc([N+](=O)[O-])c4)cc3CC[C@@H]12`, in that order: more than 50 µg/mL, more than 50 µg/mL, more than 50 µg/mL and more than 50 µg/mL.

Broadly, the IC50 is the concentration at which inhibition is half-maximal.
